From ChEMBL document CHEMBL1143919, “Sugar Chips immobilized with synthetic sulfated disaccharides of heparin/heparan sulfate partial structure” (Bioorg Med Chem Lett, 2008)

Experiments:
[1] = Binding affinity to human recombinant von Willebrand factor A1 domain using surface plasmon resonance imaging sensor
Fibronectin = Fibronectin (Homo sapiens, UniProt P02751); experiment: Binding affinity to fibronectin using surface plasmon resonance imaging sensor method
Sequence of Fibronectin (P02751 whole entry): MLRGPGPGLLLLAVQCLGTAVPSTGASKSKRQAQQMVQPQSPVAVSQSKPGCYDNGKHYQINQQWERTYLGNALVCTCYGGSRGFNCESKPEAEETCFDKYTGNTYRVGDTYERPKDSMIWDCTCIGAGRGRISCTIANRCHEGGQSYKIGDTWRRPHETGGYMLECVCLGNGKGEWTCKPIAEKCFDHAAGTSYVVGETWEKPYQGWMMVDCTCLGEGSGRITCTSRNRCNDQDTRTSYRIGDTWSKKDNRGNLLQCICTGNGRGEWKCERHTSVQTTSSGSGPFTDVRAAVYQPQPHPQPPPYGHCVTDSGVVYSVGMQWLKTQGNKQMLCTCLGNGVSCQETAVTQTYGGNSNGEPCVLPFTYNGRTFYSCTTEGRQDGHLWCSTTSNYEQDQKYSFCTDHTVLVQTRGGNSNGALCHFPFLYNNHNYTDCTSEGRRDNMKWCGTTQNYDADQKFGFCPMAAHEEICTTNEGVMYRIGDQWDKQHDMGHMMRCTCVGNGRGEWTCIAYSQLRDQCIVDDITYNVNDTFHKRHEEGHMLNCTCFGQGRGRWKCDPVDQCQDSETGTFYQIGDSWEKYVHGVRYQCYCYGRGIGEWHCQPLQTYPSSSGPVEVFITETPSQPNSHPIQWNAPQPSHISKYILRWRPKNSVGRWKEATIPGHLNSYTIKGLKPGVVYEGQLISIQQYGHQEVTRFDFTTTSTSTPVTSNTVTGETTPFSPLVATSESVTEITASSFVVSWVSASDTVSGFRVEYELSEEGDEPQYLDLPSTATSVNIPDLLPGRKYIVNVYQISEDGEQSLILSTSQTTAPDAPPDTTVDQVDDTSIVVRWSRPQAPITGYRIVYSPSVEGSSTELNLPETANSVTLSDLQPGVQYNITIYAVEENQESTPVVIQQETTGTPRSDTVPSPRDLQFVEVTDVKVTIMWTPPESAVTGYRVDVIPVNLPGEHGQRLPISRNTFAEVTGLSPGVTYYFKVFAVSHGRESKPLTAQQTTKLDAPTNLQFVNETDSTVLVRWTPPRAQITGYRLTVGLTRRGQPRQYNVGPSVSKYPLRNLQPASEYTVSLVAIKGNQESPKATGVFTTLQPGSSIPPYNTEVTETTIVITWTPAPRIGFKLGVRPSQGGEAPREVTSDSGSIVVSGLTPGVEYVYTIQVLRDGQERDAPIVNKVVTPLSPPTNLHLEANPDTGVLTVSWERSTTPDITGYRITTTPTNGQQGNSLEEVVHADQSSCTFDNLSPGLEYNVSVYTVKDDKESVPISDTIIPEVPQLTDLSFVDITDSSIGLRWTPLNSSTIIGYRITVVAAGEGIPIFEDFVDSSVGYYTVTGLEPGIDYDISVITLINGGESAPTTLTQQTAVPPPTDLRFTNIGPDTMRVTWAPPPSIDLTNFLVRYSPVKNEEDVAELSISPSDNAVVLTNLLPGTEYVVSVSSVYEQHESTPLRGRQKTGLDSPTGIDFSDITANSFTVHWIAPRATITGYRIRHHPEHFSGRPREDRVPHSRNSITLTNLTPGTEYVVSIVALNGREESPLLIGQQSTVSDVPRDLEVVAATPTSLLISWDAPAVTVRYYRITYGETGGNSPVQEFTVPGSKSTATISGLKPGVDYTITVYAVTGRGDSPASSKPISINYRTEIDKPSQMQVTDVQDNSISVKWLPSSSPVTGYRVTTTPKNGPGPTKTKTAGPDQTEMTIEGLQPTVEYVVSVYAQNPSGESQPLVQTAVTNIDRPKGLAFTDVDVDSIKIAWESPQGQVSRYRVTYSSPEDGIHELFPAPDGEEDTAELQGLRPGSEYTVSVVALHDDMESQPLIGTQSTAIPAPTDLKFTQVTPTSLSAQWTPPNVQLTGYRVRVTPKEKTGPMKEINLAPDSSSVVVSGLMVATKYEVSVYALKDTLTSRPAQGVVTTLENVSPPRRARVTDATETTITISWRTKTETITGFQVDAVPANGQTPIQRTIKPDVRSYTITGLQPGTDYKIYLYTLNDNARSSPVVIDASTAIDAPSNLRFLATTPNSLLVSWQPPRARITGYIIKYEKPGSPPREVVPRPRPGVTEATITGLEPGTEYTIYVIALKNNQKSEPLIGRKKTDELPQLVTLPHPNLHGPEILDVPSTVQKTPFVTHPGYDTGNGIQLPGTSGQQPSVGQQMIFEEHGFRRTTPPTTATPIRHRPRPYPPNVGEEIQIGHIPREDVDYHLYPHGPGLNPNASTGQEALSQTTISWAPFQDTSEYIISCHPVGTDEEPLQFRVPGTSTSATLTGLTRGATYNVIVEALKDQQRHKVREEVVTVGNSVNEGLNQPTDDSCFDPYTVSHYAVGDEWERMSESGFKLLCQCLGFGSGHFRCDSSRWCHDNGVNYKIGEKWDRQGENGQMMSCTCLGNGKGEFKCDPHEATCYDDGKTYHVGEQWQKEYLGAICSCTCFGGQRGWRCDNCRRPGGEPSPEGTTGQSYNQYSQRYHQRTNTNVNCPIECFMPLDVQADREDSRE

CO[C@H]1[C@H](O)[C@@H](NS(=O)(=O)O)[C@@H](O[C@H]2[C@H](O)[C@@H](OS(=O)(=O)O)[C@H](OC[C@@H](O)[C@@H](O)[C@H](O)[C@@H](O)CNc3cccc(NC(=O)CCCCC4CCSS4)c3)O[C@H]2C(=O)O)O[C@@H]1CO (stereo partly drawn)
Kd [1]: 900 nM
Kd (Fibronectin): 30 nM

CO[C@H]1[C@H](O)[C@@H](NS(=O)(=O)O)[C@@H](O[C@H]2[C@H](O)[C@@H](OS(=O)(=O)O)[C@H](OC[C@@H](O)[C@@H](O)[C@H](O)[C@@H](O)CNc3cccc(NC(=O)CCCCC4CCSS4)c3)O[C@H]2C(=O)O)O[C@@H]1COS(=O)(=O)O (stereo partly drawn)
Kd [1]: 1000 nM
Kd (Fibronectin): 5.5 nM

CO[C@H]1[C@H](O)[C@@H](NS(=O)(=O)O)[C@@H](O[C@H]2[C@H](O)[C@@H](O)[C@H](OC[C@@H](O)[C@@H](O)[C@H](O)[C@@H](O)CNc3cccc(NC(=O)CCCCC4CCSS4)c3)O[C@@H]2C(=O)O)O[C@@H]1CO (stereo partly drawn)
Kd [1]: 4300 nM
Kd (Fibronectin): 33 nM

CO[C@H]1[C@H](O)[C@@H](NS(=O)(=O)O)[C@@H](O[C@H]2[C@H](O)[C@@H](O)[C@H](OC[C@@H](O)[C@@H](O)[C@H](O)[C@@H](O)CNc3cccc(NC(=O)CCCCC4CCSS4)c3)O[C@@H]2C(=O)O)O[C@@H]1COS(=O)(=O)O (stereo partly drawn)
Kd [1]: 1400 nM
Kd (Fibronectin): 6.5 nM
